According to PubChem BioAssay (NCI):
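These data come from cells grown in 96-well plates and exposed to compound for 48 hours at five concentrations. TGI denotes the concentration required for complete inhibition of growth.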

How the values were obtained:
Experiment in all cases: NCI anticancer screen, dose series, 48 h
SF-295 CNS = system: SF-295 CNS
A549 NSCLC = system: A549 NSCLC
HT29 colon = system: HT29 colon
KM12 colon = system: KM12 colon
UACC-257 melanoma = system: UACC-257 melanoma
UO-31 renal = system: UO-31 renal
HCT-15 colon = system: HCT-15 colon
PC-3 prostate = system: PC-3 prostate
SF-539 CNS = system: SF-539 CNS
DU-145 prostate = system: DU-145 prostate
SW-620 colon = system: SW-620 colon
COLO 205 colon = system: COLO 205 colon
U251 CNS = system: U251 CNS
NCI/ADR-RES ovarian = system: NCI/ADR-RES ovarian
NCI-H23 lung = system: NCI-H23 lung
786-0 renal = system: 786-0 renal
LOX IMVI melanoma = system: LOX IMVI melanoma
TK-10 renal = system: TK-10 renal
NCI-H226 lung = system: NCI-H226 lung
OVCAR-8 ovarian = system: OVCAR-8 ovarian
SNB-75 CNS = system: SNB-75 CNS
T-47D breast = system: T-47D breast
OVCAR-5 ovarian = system: OVCAR-5 ovarian
CCRF-CEM leukemia = system: CCRF-CEM leukemia
SK-MEL-28 melanoma = system: SK-MEL-28 melanoma
NCI-H522 lung = system: NCI-H522 lung
MCF7 breast = system: MCF7 breast
BT-549 breast = system: BT-549 breast
HCC-2998 colon = system: HCC-2998 colon
ACHN renal = system: ACHN renal
OVCAR-4 ovarian = system: OVCAR-4 ovarian
RPMI-8226 leukemia = system: RPMI-8226 leukemia
MOLT-4 leukemia = system: MOLT-4 leukemia
A498 renal = system: A498 renal
HOP-92 NSCLC = system: HOP-92 NSCLC
SK-MEL-2 melanoma = system: SK-MEL-2 melanoma
SK-OV-3 ovarian = system: SK-OV-3 ovarian
UACC-62 melanoma = system: UACC-62 melanoma
IGROV1 ovarian = system: IGROV1 ovarian
HL-60(TB) leukemia = system: HL-60(TB) leukemia
RXF 393 renal = system: RXF 393 renal
OVCAR-3 ovarian = system: OVCAR-3 ovarian
SN12C renal = system: SN12C renal
CAKI-1 renal = system: CAKI-1 renal
SNB-19 CNS = system: SNB-19 CNS
NCI-H460 lung = system: NCI-H460 lung
MDA-MB-231 breast = system: MDA-MB-231 breast
K-562 leukemia = system: K-562 leukemia
M14 melanoma = system: M14 melanoma
MDA-N = system: MDA-N
HS 578T breast = system: HS 578T breast
SK-MEL-5 melanoma = system: SK-MEL-5 melanoma
MDA-MB-435 = system: MDA-MB-435
HCT-116 colon = system: HCT-116 colon
EKVX NSCLC = system: EKVX NSCLC
HOP-62 NSCLC = system: HOP-62 NSCLC
MALME-3M melanoma = system: MALME-3M melanoma
SF-268 CNS = system: SF-268 CNS
SR leukemia = system: SR leukemia

## CC(C)(C)OC(=O)NCCC(=O)NC1(c2cc3ccccc3s2)CCCCC1
SF-295 CNS
  TGI: 36.5 µM
A549 NSCLC
  TGI: 38.6 µM
HT29 colon
  TGI: 29.7 µM
KM12 colon
  TGI: 33.5 µM
UACC-257 melanoma
  TGI: 39 µM
UO-31 renal
  TGI: 30.5 µM
HCT-15 colon
  TGI: 30.6 µM
PC-3 prostate
  TGI: 37 µM
SF-539 CNS
  TGI: 29.2 µM
DU-145 prostate
  TGI: 33.6 µM
SW-620 colon
  TGI: 41.1 µM
COLO 205 colon
  TGI: 32.9 µM
U251 CNS
  TGI: 37.7 µM
NCI/ADR-RES ovarian
  TGI: 41.6 µM
NCI-H23 lung
  TGI: 31.4 µM
786-0 renal
  TGI: 35.7 µM
LOX IMVI melanoma
  TGI: 36.5 µM
TK-10 renal
  TGI: 55.4 µM
NCI-H226 lung
  TGI: 42.4 µM
OVCAR-8 ovarian
  TGI: 35.8 µM
SNB-75 CNS
  TGI: 38.7 µM
T-47D breast
  TGI: 33.3 µM
OVCAR-5 ovarian
  TGI: 39.9 µM
CCRF-CEM leukemia
  TGI: 27.5 µM
SK-MEL-28 melanoma
  TGI: 35 µM
NCI-H522 lung
  TGI: 26.2 µM
MCF7 breast
  TGI: 41 µM
BT-549 breast
  TGI: 32.5 µM
HCC-2998 colon
  TGI: 47.5 µM
ACHN renal
  TGI: 61.4 µM
OVCAR-4 ovarian
  TGI: 29.1 µM
RPMI-8226 leukemia
  TGI: 20.5 µM
MOLT-4 leukemia
  TGI: 28.5 µM
A498 renal
  TGI: 45.4 µM
HOP-92 NSCLC
  TGI: 33.7 µM
SK-MEL-2 melanoma
  TGI: 44.9 µM
SK-OV-3 ovarian
  TGI: 60.1 µM
UACC-62 melanoma
  TGI: 49.1 µM
IGROV1 ovarian
  TGI: 36.5 µM
HL-60(TB) leukemia
  TGI: 35.1 µM
RXF 393 renal
  TGI: 26.2 µM
OVCAR-3 ovarian
  TGI: 33.2 µM
SN12C renal
  TGI: 34.3 µM
CAKI-1 renal
  TGI: 48.6 µM
SNB-19 CNS
  TGI: 37.1 µM
NCI-H460 lung
  TGI: 34.3 µM
MDA-MB-231 breast
  TGI: 38.4 µM
K-562 leukemia
  TGI: 28.9 µM
M14 melanoma
  TGI: 34.2 µM
MDA-N
  TGI: 34.2 µM
HS 578T breast
  TGI: 48.8 µM
SK-MEL-5 melanoma
  TGI: 25.9 µM
MDA-MB-435
  TGI: 33.1 µM
HCT-116 colon
  TGI: 27 µM
EKVX NSCLC
  TGI: 50.6 µM
HOP-62 NSCLC
  TGI: 35.3 µM
MALME-3M melanoma
  TGI: 37.5 µM

## CC1(C)CCCC(C)(C2CCC3(C)C2C(O)CC2C4(C)CCC(O)C(C)(C)C4C(O)CC23C)O1 (configuration not stated)
SF-295 CNS
  TGI: 24.7 µM
A549 NSCLC
  TGI: 24.4 µM
HT29 colon
  TGI: 14 µM
KM12 colon
  TGI: 24.7 µM
UACC-257 melanoma
  TGI: 28.1 µM
UO-31 renal
  TGI: 24.1 µM
HCT-15 colon
  TGI: 24.7 µM
PC-3 prostate
  TGI: 25.7 µM
SF-539 CNS
  TGI: 28.1 µM
DU-145 prostate
  TGI: 32.4 µM
SW-620 colon
  TGI: 41.6 µM
COLO 205 colon
  TGI: 24.4 µM
U251 CNS
  TGI: 34.4 µM
NCI/ADR-RES ovarian
  TGI: 37.4 µM
NCI-H23 lung
  TGI: 25.6 µM
786-0 renal
  TGI: 72.5 µM
LOX IMVI melanoma
  TGI: > 100 µM
TK-10 renal
  TGI: 25.4 µM
NCI-H226 lung
  TGI: 40.1 µM
SF-268 CNS
  TGI: 31.9 µM
SR leukemia
  TGI: 86.1 µM
OVCAR-8 ovarian
  TGI: 41.9 µM
SNB-75 CNS
  TGI: 24.6 µM
T-47D breast
  TGI: 28.9 µM
OVCAR-5 ovarian
  TGI: 38.4 µM
CCRF-CEM leukemia
  TGI: 8.67 µM
SK-MEL-28 melanoma
  TGI: 28.2 µM
NCI-H522 lung
  TGI: 29.8 µM
MCF7 breast
  TGI: 29.3 µM
BT-549 breast
  TGI: 28.5 µM
HCC-2998 colon
  TGI: 27.9 µM
ACHN renal
  TGI: 24.5 µM
OVCAR-4 ovarian
  TGI: 26 µM
MOLT-4 leukemia
  TGI: 16.3 µM
A498 renal
  TGI: 28.1 µM
HOP-92 NSCLC
  TGI: 30.6 µM
SK-MEL-2 melanoma
  TGI: 28 µM
SK-OV-3 ovarian
  TGI: 32 µM
UACC-62 melanoma
  TGI: 27.5 µM
IGROV1 ovarian
  TGI: 38.5 µM
HL-60(TB) leukemia
  TGI: 5.44 µM
SN12C renal
  TGI: 30.8 µM
CAKI-1 renal
  TGI: 17.6 µM
SNB-19 CNS
  TGI: 25.5 µM
NCI-H460 lung
  TGI: 25.3 µM
MDA-MB-231 breast
  TGI: 34.8 µM
K-562 leukemia
  TGI: 25.1 µM
M14 melanoma
  TGI: 31.7 µM
MDA-N
  TGI: 30.8 µM
HS 578T breast
  TGI: 30.8 µM
SK-MEL-5 melanoma
  TGI: 17.6 µM
MDA-MB-435
  TGI: 30.3 µM
HCT-116 colon
  TGI: > 100 µM
EKVX NSCLC
  TGI: 32.5 µM
MALME-3M melanoma
  TGI: 50.1 µM
